US12509431B2, “1,4-dihydroquinazolinone compounds and uses thereof” (Edgewise Therapeutics, Inc., priority 2022, dated 2025)

How the values were obtained:
Assay type in all cases: biochemical
Conditions in all cases: Table 7
Porcine Atria myofibrils = test: Myofibril ATPase assay (PK/LDH NADH-coupled), atria myofibrils
In short: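 Porcine atrial myofibril ATPase followed via PK/LDH-coupled NADH depletion, absorbance at 340 nm read every 1.5-2 min over 75 min. Slopes (mAU/min) normalized to vehicle as 100% and fit to a 4-parameter logistic; EC25% derived, plus EC50% for inhibitors.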

[1] = target: T1, Porcine Ventricle myofibrils (left ventricle of Yucatan minipigs) (Sus scrofa, UniProt P79293); test: Myofibril ATPase assay (PK/LDH NADH-coupled), ventricle myofibrils
T1 construct: Myofibrils from porcine cardiac muscle was isolated from the left ventricle of Yucatan minipigs; tissue Exemplar Genetics; host or cells: left ventricle of Yucatan minipigs
In short: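 Yucatan minipig left-ventricle myofibrils; ATPase measured by PK/LDH-coupled NADH loss at 340 nm, read every 1.5-2 min for 75 min. Slopes normalized to vehicle (100%) and fit to 4-parameter logistic model; EC25 and, for inhibitors, EC50 calculated.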

[2] = test system: Rabbit Skeletal myofibrils (rabbit psoas muscle); test: Myofibril ATPase assay (PK/LDH NADH-coupled), skeletal myofibrils
In short: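 Rabbit psoas myofibrils in pCa (PIPES/CaCl2/EGTA, pH 7.0) buffer; ADP coupled via PK/LDH to NADH loss, read at 340 nm every 1.5–2 min for 75 min. Slopes normalized to vehicle (100%) and fit to 4-parameter logistic for EC25, plus EC50 for inhibitors.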

T1 sequence (P79293 whole entry): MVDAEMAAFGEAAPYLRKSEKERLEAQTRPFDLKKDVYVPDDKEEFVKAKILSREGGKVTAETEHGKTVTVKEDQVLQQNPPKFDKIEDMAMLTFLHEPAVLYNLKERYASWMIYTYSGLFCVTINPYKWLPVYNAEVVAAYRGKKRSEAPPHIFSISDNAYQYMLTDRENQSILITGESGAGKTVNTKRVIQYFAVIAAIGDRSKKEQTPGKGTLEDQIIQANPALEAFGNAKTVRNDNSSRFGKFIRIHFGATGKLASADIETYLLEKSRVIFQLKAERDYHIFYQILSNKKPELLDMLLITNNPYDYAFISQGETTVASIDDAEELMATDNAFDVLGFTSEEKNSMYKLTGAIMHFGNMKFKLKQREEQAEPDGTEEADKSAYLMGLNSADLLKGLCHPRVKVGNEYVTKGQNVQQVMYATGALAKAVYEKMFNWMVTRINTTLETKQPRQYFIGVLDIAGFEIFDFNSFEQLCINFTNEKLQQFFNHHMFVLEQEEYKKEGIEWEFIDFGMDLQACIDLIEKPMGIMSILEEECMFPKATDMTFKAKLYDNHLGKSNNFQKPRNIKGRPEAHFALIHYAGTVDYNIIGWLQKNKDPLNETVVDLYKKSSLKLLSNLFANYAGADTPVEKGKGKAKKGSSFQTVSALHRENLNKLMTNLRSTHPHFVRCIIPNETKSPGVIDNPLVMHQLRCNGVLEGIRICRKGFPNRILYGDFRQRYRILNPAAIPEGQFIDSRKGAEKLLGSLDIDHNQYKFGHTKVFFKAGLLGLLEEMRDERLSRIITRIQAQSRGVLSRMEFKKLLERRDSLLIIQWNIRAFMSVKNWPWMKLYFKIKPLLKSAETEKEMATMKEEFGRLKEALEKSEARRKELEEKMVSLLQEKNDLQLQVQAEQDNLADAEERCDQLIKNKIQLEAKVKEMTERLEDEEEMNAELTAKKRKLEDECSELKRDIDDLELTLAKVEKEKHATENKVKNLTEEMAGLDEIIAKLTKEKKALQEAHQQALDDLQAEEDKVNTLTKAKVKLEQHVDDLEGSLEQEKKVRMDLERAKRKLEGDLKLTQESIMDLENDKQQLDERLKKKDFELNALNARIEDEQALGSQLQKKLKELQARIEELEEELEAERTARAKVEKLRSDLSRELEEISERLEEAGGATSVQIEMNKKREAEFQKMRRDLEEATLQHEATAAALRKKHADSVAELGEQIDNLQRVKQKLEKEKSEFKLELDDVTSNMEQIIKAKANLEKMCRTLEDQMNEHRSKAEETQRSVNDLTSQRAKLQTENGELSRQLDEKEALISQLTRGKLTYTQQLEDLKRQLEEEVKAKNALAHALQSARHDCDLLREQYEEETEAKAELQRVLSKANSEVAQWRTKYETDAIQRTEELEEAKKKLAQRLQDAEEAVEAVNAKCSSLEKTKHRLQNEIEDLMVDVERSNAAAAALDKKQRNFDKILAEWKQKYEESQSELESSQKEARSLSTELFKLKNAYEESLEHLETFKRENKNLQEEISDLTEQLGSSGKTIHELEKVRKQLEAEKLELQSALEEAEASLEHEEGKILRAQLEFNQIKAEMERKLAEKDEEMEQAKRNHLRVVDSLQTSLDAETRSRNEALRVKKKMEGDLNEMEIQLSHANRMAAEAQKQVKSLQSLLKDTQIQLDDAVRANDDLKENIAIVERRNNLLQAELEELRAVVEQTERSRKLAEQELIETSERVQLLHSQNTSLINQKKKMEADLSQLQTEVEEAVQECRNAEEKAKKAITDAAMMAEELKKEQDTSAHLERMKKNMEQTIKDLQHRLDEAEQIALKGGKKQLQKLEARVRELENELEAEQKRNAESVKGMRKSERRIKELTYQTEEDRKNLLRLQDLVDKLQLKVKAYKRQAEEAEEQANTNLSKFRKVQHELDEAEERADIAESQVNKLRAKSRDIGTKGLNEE

Structure (SMILES)	Porcine Atria IC25 (Porcine Atria myofibrils) [µM]	Porcine Ventricle IC25 [1] [µM]	Rabbit Psoas IC25 [2] [µM]
C[C@H](NC(=O)CN1C(=O)Nc2ccc(C#N)nc2C12CC2)c1ncc(C#N)cc1F [Compound N4]	0.07	0.474	0.1067
N#Cc1cc(F)c2c(c1)OC[C@H]2NC(=O)CN1Cc2c(ccnc2C(F)(F)F)NC1=O [Compound N5]	0.07	0.1154	0.0178
N#Cc1cc(F)c2c(c1)OC[C@@H]2NC(=O)CN1Cc2c(ccnc2C(F)(F)F)NC1=O [Compound N6]	2.82	38.22	2.918
N#Cc1nccc2c1CN(CC(=O)N[C@@H]1COc3cc(F)cc(F)c31)C(=O)N2 [Compound N7]	0.11	0.266	0.0355
N#Cc1nccc2c1CN(CC(=O)N[C@H]1COc3cc(F)cc(F)c31)C(=O)N2 [Compound N8]	2.20	13.21	0.3271
O=C(CN1Cc2cnccc2NC1=O)N[C@@H]1COc2cc(F)cc(F)c21 [Compound N10]	0.82	13.44	0.4579
O=C(CN1Cc2cnccc2NC1=O)N[C@H]1COc2cc(F)cc(F)c21 [Compound N11]	100.00	100	100
C[C@@H](NC(=O)CN1C(=O)Nc2ccc(C#N)nc2C12CC2)c1ccc(F)cc1F [Compound N12]	7.63	100	100
C[C@H](NC(=O)CN1C(=O)Nc2ccc(C#N)nc2C12CC2)c1ccc(F)cc1F [Compound N13]	0.07	0.8569	0.063
C[C@@H](NC(=O)CN1C(=O)Nc2ccc(C#N)nc2C12CC2)c1ncc(F)cc1F [Compound N14]	1.16	100	100
C[C@H](NC(=O)CN1C(=O)Nc2ccc(C#N)nc2C12CC2)c1ncc(F)cc1F [Compound N15, 2-{6′-Cyano-2′-oxo-1′H-spiro[cyclopropane-1,4′-pyrido[3,2-d]pyrimidin]-3′-yl}-N-[(1S)-1-(3,5-difluoropyridin-2-yl)ethyl]acetamide]	0.07	2.788	0.197
C[C@@H](NC(=O)CN1C(=O)Nc2cccnc2C12CC2)c1ccc(C#N)cn1 [Compound N16]	0.60	100	1.645
C[C@H](NC(=O)CN1C(=O)Nc2cccnc2C12CC2)c1ccc(C#N)cn1 [Compound N17]	75.12	100	100
O=C(CN1Cc2c(ccnc2C(F)(F)F)NC1=O)N[C@@H]1COc2cc(F)cc(F)c21 [Compound N18]	0.12	1.324	0.03098
O=C(CN1Cc2c(ccnc2C(F)(F)F)NC1=O)N[C@H]1COc2cc(F)cc(F)c21 [Compound N19]	2.00	11.46	2.245
C[C@@H](NC(=O)CN1Cc2cnccc2NC1=O)c1ccc(C#N)cc1F [Compound N20]	100.00	100	0.1315
C[C@H](NC(=O)CN1Cc2cnccc2NC1=O)c1ccc(C#N)cc1F [Compound N21]	4.36	13.45	6.632
C[C@@H](NC(=O)CN1Cc2c(ccnc2C#N)NC1=O)c1ccc(C#N)cc1F [Compound N22]	100.00	100	0.2583
C[C@H](NC(=O)CN1Cc2c(ccnc2C#N)NC1=O)c1ccc(C#N)cc1F [Compound N23]	0.28	0.1625	0.0165
C[C@H](NC(=O)CN1Cc2c(C#N)cncc2NC1=O)c1ccc(F)cc1F [Compound N24, 2-{5-Cyano-2-oxo-1H,4H-pyrido[3,4-d]pyrimidin-3-yl}-N-[(1S)-1-(2,4-difluorophenyl)ethyl]acetamide]	2.97	37.65	0.2119
C[C@@H](NC(=O)CN1C(=O)Nc2cccnc2C12CC2)c1ncc(C#N)cc1F [Compound N25]	13.11	100	1.324
O=C(CN1C(=O)Nc2cccnc2C12CC2)N[C@H](CO)c1ccc(F)cc1F [Compound N27]	100.00	100	100

Structure (SMILES)	Porcine Atria IC25 (Porcine Atria myofibrils) [µM]	Porcine Ventricle IC25 [1] [µM]	Rabbit Psoas IC25 [2] [µM]
O=C(CN1C(=O)Nc2cccnc2C12CC2)N[C@@H](CO)c1ccc(F)cc1F [Compound N28]	0.41	6.602	0.2814
C[C@@H](NC(=O)CN1C(=O)Nc2cccnc2C12COC2)c1ncc(F)cc1F [Compound N29]	100.00	100	100
C[C@H](NC(=O)CN1C(=O)Nc2cccnc2C12COC2)c1ncc(F)cc1F [Compound N30]	35.72	100	5.318
N#Cc1ccc([C@@H](CO)NC(=O)CN2Cc3c(ccnc3C#N)NC2=O)c(F)c1 [Compound N31]	0.38	1.237	0.0533
N#Cc1ccc([C@H](CO)NC(=O)CN2Cc3c(ccnc3C#N)NC2=O)c(F)c1 [Compound N32]	100.00	100	2.872
O=C(CN1C(=O)Nc2cccnc2C12CC2)N[C@H]1COc2cc(F)cc(F)c21 [Compound N34]	8.44	100	1.366
C[C@H](NC(=O)CN1C(=O)Nc2cccnc2C12COC2)c1ccc(F)cc1F [Compound N35]	6.39	100	0.9847
N#Cc1ccc([C@@H](CO)NC(=O)CN2C(=O)Nc3cccnc3C23CC3)c(F)c1 [Compound N36]	8.01	25.16	1.604
N#Cc1ccc([C@H](CO)NC(=O)CN2C(=O)Nc3cccnc3C23CC3)c(F)c1 [Compound N37]	0.20	4.582	0.0599
C[C@@H](NC(=O)CN1Cc2c(C#N)cncc2NC1=O)c1ncc(F)cc1F [Compound N38]	60.44	100	5.343
C[C@H](NC(=O)CN1Cc2c(C#N)cncc2NC1=O)c1ncc(F)cc1F [Compound N39]	9.59	51.8	1.979
N#Cc1nccc2c1CN(CC(=O)N[C@H](CO)c1ccc(F)cc1F)C(=O)N2 [Compound N40]	87.45	100	4.177
N#Cc1nccc2c1CN(CC(=O)N[C@@H](CO)c1ccc(F)cc1F)C(=O)N2 [Compound N41]	1.12	2.357	0.0762
C[C@H](NC(=O)CN1C(=O)Nc2ccc(O)nc2C12CC2)c1ccc(F)cc1F [Compound N42]	100.00	100	100
O=C(CN1C(=O)Nc2cccnc2C12CC2)N[C@H](CO)c1ccc(F)cc1F [Compound N43]	32.69	100	100
O=C(CN1C(=O)Nc2cccnc2C12CC2)N[C@@H](CO)c1ccc(F)cc1F [Compound N44]	1.18	18.96	0.5658
C[C@H](NC(=O)[C@H](C)N1Cc2nc(C#N)ccc2NC1=O)c1ccc(F)cc1F [Compound N45]	14.99	100	100
C[C@H](NC(=O)[C@@H](C)N1Cc2nc(C#N)ccc2NC1=O)c1ccc(F)cc1F [Compound N46]	100.00	100	100
C[C@@H](NC(=O)CN1C(=O)Nc2cccnc2C12CC2)c1ncc(F)cc1F [Compound N47]	0.67	6.077	0.2942
C[C@H](NC(=O)CN1C(=O)Nc2cccnc2C12CC2)c1ncc(F)cc1F [Compound N48]	100.00	100	100
O=C(CN1Cc2c(ccnc2C(F)(F)F)NC1=O)N[C@H](CO)c1ncc(F)cc1F [Compound N49]	100.00	100	100
